This note sets out measurements from patent publication US20010053766A1, “Method of treating disorders of the eye” (priority 2000, published 2001).

The test system of series [1] is New Zealand White rabbits. The series can be described thus: RGD-peptide injection in the anterior chamber of rabbit eye. Particulars: 500 μg in PBS injected into the anterior chamber of one eye, live rabbits n=3. Type of series: in vivo. Here is the method: New Zealand White rabbits of approximately five pounds were used for this experiment. Baseline Intraocular Pressure (IOP) data was obtained using a MENTOR tonopen prior to anaesthesia. The rabbits were anaesthetized with IM KETAMINE and topical proparacaine. The GRGDTP peptide (500 μg) was dissolved in phosphate buffered saline (PBS) and injected into the anterior chamber of only one eye. Further intraocular pressure mesurements were performed with a tonopen and data recorded in a time dependent manner, as shown in FIG. 8.
The results are expressed as percent change in IOP as compared to basal values obtained before injection of the RGD peptide. The basal value was taken as IOP (0%) in both eyes and the contralateral eye was used as control.

Series [2] deals with outflow pathway cells of perfused porcine eyes. Nature of the series: Morphological studies of perfused eyes (transmission electron microscopy of outflow pathway). The settings on record: porcine eyes perfused with peptide, 4 pairs, versus sham controls. The protocol:
After completion of RGD perfusion experiments, 4 pairs of the experimental and the control eyes were fixed for morphological examination. The fixation was performed by perfusing overnight at constant pressure of 15 mmHg with perfusion buffer containing 2.5% gluteraldehyde and 2.0% formaldehyde. Small cross-section wedges of the outflow pathway area of fixed eyes were prepared for transmission electron microscopy as described previously (Epstein et al, Invest. Ophthalmol Vis. Sci. 40:74-8116 (1999)). The specimens were fixed in 1% osmium tetraoxide in 0.1 M sodium cacodylate buffer and stained with 1% uranyl acetate for 1 hr in dark. Further, the tissues were dehydrated, infiltrated and embedded on Spurr embedding medium (Ted Pella, Inc., Redding, Calif.). Ultrathin sections (70 nm) were obtained by microtomy and stained with potassium permanganate and Sato's lead sequentially before examined with a transmission electron microscope (1200 EX; JEOL, Peabody, Mass.).

In series [3] the test system is Human Schlemm's canal (SC) cell monolayers. Nature of the series: SC cell monolayer permeability barrier function (HRP diffusion on Transwells). Type of series: cell-based. Particulars: 200 μM peptide, 1 hr, complete medium, n=7; mean ± S.E. Here is the method: (§1) Human cadaver eye tissues were obtained from the National Disease Research Interchange (NDRI; Philadelphia, Pa.), and the SC cells were isolated following the techniques previously described (Stammer et al, Invest. Ophthalmol. Vis. Sci. 39:1804 (1998)). The cells were grown in Dulbecco's modified Eagle's medium with 10% fetal bovine serum, 2 mM L-glutamine, 100 U/ml penicillin G and 100 μg/ml streptomycine sulfate (all from GibcoBRL, Gaithersburg, Md.). The primary cultures of SC cells were used between the passages of three to six, throughout the experiments.
To correlate the specific effects of the RGD peptide compared to a control RGE peptide, the standard device was used to measure the monolayer permeability barrier function on Transwells cell culture chambers (fibronectin-coated polycarbonate filters, […] pore size, Costar Corp.) as described by Lampugnani et al (J. Cell Biol. 112: 479-490 (1991)). The diffusion of horseradish peroxidase (HRP) through SC cell monolayer was determined with and without RGD hexapeptide GRGDTP (Sigma, St. Louis, Mo.) or known control RGE hexapeptide GRGESP (GibcoBRL, Gaithersberg, Md.). […] Results were expressed as percent change in enzyme activity as compared to untreated controls. Values were obtained from three independent experiments and expressed as means±S.E. A paired t-test analysis was also performed with respect to untreated controls.

The test system is the same in series [4]. The series can be described thus: SC cells monolayer integrity assay in vitro (phase contrast, F-actin and focal adhesion staining). Type of series: cell-based. The settings on record: complete medium, 37 C. The protocol: as §1
To evaluate the effect of RGD peptide on monolayer integrity, the SC cells were seeded on fibronectin-coated coverslips and grown for 10 days in complete medium. Before the experiment, the gaps in the confluent cells layer on coverslips were examined thoroughly. Further, the culture media was replaced with RGD peptide or control RGE peptide (200 μM)-containing complete medium and incubated at 37° C. in CO2 incubator. The changes in morphology (cell retraction, cell-cell attachments) were followed for 3 hrs. The induced morphological changes were monitored by phase contrast microscopy (Zeiss IM 35). For clear illustration of the specific and non-toxic effects of RGD peptide, the changes in SC cells monolayer integrity and reversibility were followed after treatment at higher concentration (1.0 mM) as compared to control RGE peptide. The coverslips were fixed with 3.7% formaldehyde and stained for F-actin and focal adhesions as described earlier (Lampugnani et al, J. Cell Biol. 112: 479-490 (1991)). The RGD-containing medium was removed with complete culture medium after three times washing and incubation was continued. Further, the reversibility of the gaps formation was followed.

Ends that are not written are not given here.

As for GRGDTP [GRGDTP], in series [1], the “evidence of anterior chamber inflammation and wound leakage” value is recorded as “no clinically significant changes”. The entries for the “cellular toxicity in outflow pathway of perfused eyes” value in series [2] and in series [2] (listed as RGD) were “did not show signs of cellular toxicity” and “no sign of cellular toxicity”, respectively.

Turning to GRGESP, the “increase in SC cells monolayer permeability (HRP diffusion) as compared to untreated controls” value in series [3] is recorded as 12%±3. Moreover, the “morphological effect on SC cell monolayer integrity” value is recorded as “compact cellular morphology” in series [4] (200 μM peptide, up to 3 hrs); “no such effect was noted” in series [4] (1.0 mM peptide, 3 hrs); “no detectable effects” in series [4] (1.0 mM peptide, 3 hrs, listed as RGE peptide).
